Measured values as given in patent US11931364B2, “Modulation of the nitric oxide synthase pathway for oral health” (Meharry Medical College, priority 2016, dated 2024).

System: nitric oxide release in rat tissue
Test: Nitric oxide release in rat tissue exposed to hyperglycemia in vitro, with sepiapterin supplementation
Settings: hyperglycemia 55 mM, 48 hr incubation, sepiapterin 100 μM, n=4 per group, FIG. 5
Procedure: FIG. 5. Effect of hyperglycemia (55 mM, 48 hr incubation) and supplementation of sepiapterin (SEP, 100 μM), on nitric oxide release in rat tissue. The bars represent mean f SEM. *p<0.05 non-glycemic (N.G, Control) vs. hyperglycemic (H.G); #p<0.05 N.G vs. SEP, t-test (n=4 in each group). […] Protein expression for DHFR was reduced in diabetic female rats (FIGS. 3A-3B). […] All the above findings correlated well with the impaired saliva secretion and water intake (FIGS. 1A-1B) and e/n NOS activity (FIGS. 3A-3B) as measured by dimerization in SM gland tissue. Therefore, dietary supplementation of sepiapterin improves e/n NOSα dimerization, nNOS activity, NO synthesis and saliva secretion.

## C[C@H](O)C(=O)C1=Nc2c(nc(N)[nH]c2=O)NC1 [sepiapterin]
  NO release in the tissue exposed to hyperglycemia: improved NO release
